Measurements reported in PubChem BioAssay AID2060506 (Molecular Pharmacology Branch, DTP, NCI, 2025).

System: 598228-144-R-J1-PDC complex spheroid viability
Assay: Anticancer human tumor 598228-144-R-J1-PDC patient-derived serous endometrial adenocarcinoma cell line growth inhibition [GQUAD]
Conditions: for IC50: curve of first compound; for viability, T/C: stronger effect = lower value; active means viability on the fitted dose curve at most 10% of control; inactive means the rest
Summary of the method: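 Multi-cell-type spheroids of tumor cells with HUVEC and mesenchymal stem cells, treated with drug combinations. Concentrations descend in half-log steps from near clinical Cmax, or from 10 microM where Cmax is unknown; viability read-out.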

[1] = second compound 0.0316 µM, first compound 0.0316 µM
[2] = second compound 0.0316 µM, first compound 0.1 µM
[3] = second compound 0.0316 µM, first compound 0.316 µM
[4] = second compound 0.0316 µM, first compound 1 µM
[5] = second compound 0.0316 µM, first compound 3.16 µM
[6] = second compound 0.0316 µM, first compound 10 µM
[7] = second compound 0.1 µM, first compound 0.0316 µM
[8] = second compound 0.1 µM, first compound 0.1 µM
[9] = second compound 0.1 µM, first compound 0.316 µM
[10] = second compound 0.1 µM, first compound 1 µM
[11] = second compound 0.1 µM, first compound 3.16 µM
[12] = second compound 0.1 µM, first compound 10 µM
[13] = second compound 0.316 µM, first compound 0.0316 µM
[14] = second compound 0.316 µM, first compound 0.1 µM
[15] = second compound 0.316 µM, first compound 0.316 µM
[16] = second compound 0.316 µM, first compound 1 µM
[17] = second compound 0.316 µM, first compound 3.16 µM
[18] = second compound 0.316 µM, first compound 10 µM
[19] = second compound 1 µM, first compound 0.0316 µM
[20] = second compound 1 µM, first compound 0.1 µM
[21] = second compound 1 µM, first compound 0.316 µM
[22] = second compound 1 µM, first compound 1 µM
[23] = second compound 1 µM, first compound 3.16 µM
[24] = second compound 1 µM, first compound 10 µM
[25] = second compound 3.16 µM, first compound 0.0316 µM
[26] = second compound 3.16 µM, first compound 0.1 µM
[27] = second compound 3.16 µM, first compound 0.316 µM
[28] = second compound 3.16 µM, first compound 1 µM
[29] = second compound 3.16 µM, first compound 3.16 µM
[30] = second compound 3.16 µM, first compound 10 µM
[31] = second compound 10 µM, first compound 0.0316 µM
[32] = second compound 10 µM, first compound 0.1 µM
[33] = second compound 10 µM, first compound 0.316 µM
[34] = second compound 10 µM, first compound 1 µM
[35] = second compound 10 µM, first compound 3.16 µM
[36] = second compound 10 µM, first compound 10 µM
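Further: spheroids exposed to the agents for one week before reading.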
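Wherever viability, T/C is given: percent of vehicle DMSO control viability so 100% = untreated growth.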

CC1COCCN1c1cc(C2(S(C)(=N)=O)CC2)nc(-c2ccnc3[nH]ccc23)n1 (centres undefined) + CN(C)c1ccc(Nc2c3ccc(NC(=O)CCN4CCCC4)cc3nc3cc(NC(=O)CCN4CCCC4)ccc23)cc1
1.73 µM: IC50 (second compound 10 µM)
2.87 µM: IC50 (second compound 0.0316 µM)
inactive: viability, T/C [1] 91.7% | viability, T/C [2] 117% | viability, T/C [3] 102% | viability, T/C [4] 81.5% | viability, T/C [5] 46.5% | viability, T/C [6] 47% | viability, T/C [7] 97.7% | viability, T/C [8] 122% | viability, T/C [9] 98.7% | viability, T/C [10] 98.3% | viability, T/C [11] 62.7% | viability, T/C [12] 48.3% | viability, T/C [13] 97.1% | viability, T/C [14] 136% | viability, T/C [15] 85% | viability, T/C [16] 61.8% | viability, T/C [17] 61.6% | viability, T/C [18] 45.9% | viability, T/C [19] 125% | viability, T/C [20] 96.6% | viability, T/C [21] 103% | viability, T/C [22] 70.8% | viability, T/C [23] 69.2% | viability, T/C [24] 60.1% | viability, T/C [25] 125% | viability, T/C [26] 89.2% | viability, T/C [27] 99.4% | viability, T/C [28] 69.4% | viability, T/C [29] 61.7% | viability, T/C [30] 57.7% | viability, T/C [31] 95.8% | viability, T/C [32] 88.5% | viability, T/C [33] 89.9% | viability, T/C [34] 64.7% | viability, T/C [35] 33.9% | viability, T/C [36] 26.6%
8.67 µM: IC50 (second compound 0.1 µM)
> 10 µM: IC50 (second compound 0.316 µM) | IC50 (second compound 1 µM) | IC50 (second compound 3.16 µM)

COc1ncnc(C2CC2)c1-c1ncc2cnn(Cc3ccc(-c4nc(C(F)(F)F)cn4C(C)C)cc3)c2n1 + Cc1cnc(CNC(=O)c2c(=O)c3ccc(N4CCCN(C)CC4)nc3n3c2sc2ccccc23)cn1
< 0.0316 µM: IC50 (second compound 10 µM)
> 10 µM: IC50 (second compound 0.0316 µM) | IC50 (second compound 0.1 µM) | IC50 (second compound 0.316 µM) | IC50 (second compound 1 µM) | IC50 (second compound 3.16 µM)
inactive: viability, T/C [1] 81% | viability, T/C [2] 88.8% | viability, T/C [3] 72.9% | viability, T/C [4] 86.8% | viability, T/C [5] 102% | viability, T/C [6] 85.4% | viability, T/C [7] 67.3% | viability, T/C [8] 79.3% | viability, T/C [9] 95.1% | viability, T/C [10] 68.4% | viability, T/C [11] 63.9% | viability, T/C [12] 78.2% | viability, T/C [13] 82.6% | viability, T/C [14] 77.5% | viability, T/C [15] 60.9% | viability, T/C [16] 73.4% | viability, T/C [17] 80.7% | viability, T/C [18] 65.2% | viability, T/C [19] 77.6% | viability, T/C [20] 76.4% | viability, T/C [21] 69.8% | viability, T/C [22] 62.8% | viability, T/C [23] 71.2% | viability, T/C [24] 90% | viability, T/C [25] 62.3% | viability, T/C [26] 65.9% | viability, T/C [27] 60.5% | viability, T/C [28] 53.8% | viability, T/C [29] 57.8% | viability, T/C [30] 65.1% | viability, T/C [31] 38.7% | viability, T/C [32] 24.8% | viability, T/C [33] 31.6% | viability, T/C [34] 24.8% | viability, T/C [35] 34.6% | viability, T/C [36] 23.6%
